Measured values reported in patent US20240309005A1 (priority 2021, published 2024).
Converted amounts (≈) assume the structure as drawn. Structures can show the parent of a compound that is named as a salt.

Assays:
physchem = details: 25 °C, kinetic from dmso stock
in vivo [1] = details: male, CD1, mouse; for Cmax / bioavailability: po, 30 mg/kg
in vivo [2] = details: male, SD, rat; for bioavailability / Cmax: po, 30 mg/kg; for Cmax: Cmax (ng/ml)

| solubility at 2 h (physchem; pH 5, fessif) | solubility at 2 h (physchem; pH 7.4, aqueous buffer) | Cmax (in vivo [1]) | bioavailability (in vivo [1]) | half-life (in vivo [1]) | half-life (in vivo [2]) | bioavailability (in vivo [2]) | Cmax (in vivo [2]) | Compound | hERG/IC50 (hERG / SGK1 (whole cell)) |
| --- | --- | --- | --- | --- | --- | --- | --- | --- | --- |
| 289 µM (≈ 136 µg/mL) | 282 µM (≈ 133 µg/mL) |  |  |  |  |  |  | Cc1n[nH]c2nc(-c3ccc(NS(=O)(=O)c4ccncc4F)cc3)nc(NCCN(C)C)c12 [Compound 15, N-[4-(4-[[2-(dimethylamino)ethyl]amino]-3-methyl-1H-pyrazolo[3,4-d]pyrimidin-6-yl)phenyl]-3-fluoropyridine-4-sulfonamide] | 4.7 |
| 268 µM (≈ 139 µg/mL) | 52 µM (≈ 26.9 µg/mL) | 2.3 ng/mL | 0.5% |  |  |  |  | Cc1n[nH]c2nc(-c3ccc(NS(=O)(=O)c4cc(Cl)ccc4F)cc3)nc(NCCN(C)C=O)c12 [Compound 18, N-[2-([6-[4-(5-chloro-2-fluorobenzenesulfonamide)phenyl]-3-methyl-1H-pyrazolo[3,4-d]pyrimidin-4-yl]amino)ethyl]-N-methylformamide] |  |
| 276 µM (≈ 144 µg/mL) | 295 µM (≈ 154 µg/mL) | 548 ng/mL | 18.8% | 4.4 h |  |  |  | Cc1n[nH]c2nc(-c3ccc(NS(=O)(=O)c4cc(C(F)(F)F)ccn4)cc3)nc(NCCN(C)C)c12 [Compound 30, N-(4-(4-((2-(dimethylamino)ethyl)amino)-3-methyl-1H-pyrazolo[3,4-d]pyrimidin-6-yl)phenyl)-4-(trifluoromethyl)pyridine-2-sulfonamide] |  |
| 298 µM (≈ 156 µg/mL) | 15.9 µM (≈ 8.3 µg/mL) | 2340 ng/mL | 41% | 2.2 h |  |  |  | Cc1n[nH]c2nc(-c3ccc(NS(=O)(=O)c4cc(Cl)ccc4F)c(F)c3)nc(NCCN(C)C)c12 [Compound 38, 5-chloro-N-(4-(4-((2-(dimethylamino)ethyl)amino)-3-methyl-1H-pyrazolo[3,4-d]pyrimidin-6-yl)-2-fluorophenyl)-2-fluorobenzenesulfonamide] |  |
|  |  | 54.9 ng/mL |  | 3.2 h |  |  |  | Cc1n[nH]c2nc(-c3ccc(NS(=O)(=O)c4cc(Cl)ccc4F)cc3)nc(O[C@@H]3CCN(CCO)C[C@@H]3F)c12 [Compound 50, 5-chloro-2-fluoro-N-[4-(4-{[(3S,4R)-3-fluoro-1-(2-hydroxyethyl)piperidin-4-yl]oxy}-3-methyl-1H-pyrazolo[3,4-d]pyrimidin-6-yl)phenyl]benzenesulfonamide] |  |
| 311 µM (≈ 159 µg/mL) | 265 µM (≈ 135 µg/mL) | 143 ng/mL |  | 1.5 h |  |  |  | Cc1n[nH]c2nc(-c3ccc(NS(=O)(=O)c4cc(OC(C)C)ccn4)cc3)nc(NCCN(C)C)c12 [Compound 73, N-[4-(4-{[2-(dimethylamino)ethyl]amino}-3-methyl-1H-pyrazolo[3,4-d]pyrimidin-6-yl)phenyl]-4-isopropoxypyridine-2-sulfonamide] |  |
|  |  | 16.8 ng/mL | 0.75% | 2.2 h |  |  |  | COc1ccc(F)c(S(=O)(=O)Nc2ccc(-c3nc(NCCN(C)CCO)c4c(C)n[nH]c4n3)cc2)c1 [Compound 77, 2-fluoro-N-{4-[4-({2-[(2-hydroxyethyl)(methyl)amino]ethyl}amino)-3-methyl-1H-pyrazolo[3,4-d]pyrimidin-6-yl]phenyl}-5-methoxybenzenesulfonamide] |  |
| 321 µM (≈ 176 µg/mL) | 2.6 µM (≈ 1.43 µg/mL) | 3720 ng/mL | 128% | 3 h | 5.06 h | 40.5% | 3400 ng/mL | Cc1n[nH]c2nc(-c3ccc(NS(=O)(=O)c4cc(Cl)ccc4F)c(F)c3)nc(OC3CCN(C)CC3)c12 [Compound 79, 5-chloro-2-fluoro-N-(2-fluoro-4-{3-methyl-4-[(1-methylpiperidin-4-yl)oxy]-1H-pyrazolo[3,4-d]pyrimidin-6-yl}phenyl)benzenesulfonamide] |  |
|  |  | 607 ng/mL | 4.5% | 1.7 h |  |  |  | Cc1n[nH]c2nc(-c3ccc(NS(=O)(=O)c4cc(Cl)ccc4F)cc3)nc(NCCN(C)CCOC(=O)C(C)(C)C)c12 [Compound 82, 2-{[2-({6-[4-(5-chloro-2-fluorobenzenesulfonamido)phenyl]-3-methyl-1H-pyrazolo[3,4-d]pyrimidin-4-yl}amino)ethyl](methyl)amino}ethyl 2,2-dimethylpropanoate] |  |
|  |  | 788 ng/mL | 4.9% | 2.4 h |  |  |  | Cc1n[nH]c2nc(-c3ccc(NS(=O)(=O)c4cc(Cl)ccc4F)cc3)nc(NCCN(C)CCOC(=O)CC(C)C)c12 [Compound 83, 2-{[2-({6-[4-(5-chloro-2-fluorobenzenesulfonamido)phenyl]-3-methyl-1H-pyrazolo[3,4-d]pyrimidin-4-yl}amino)ethyl](methyl)amino}ethyl 3-methylbutanoate] |  |
| 75 µM (≈ 40.1 µg/mL) | 0.66 µM (≈ 0.353 µg/mL) | 40.9 ng/mL | 3.1% | 26 h | 4.9 h | 6.7% | 354 ng/mL | Cc1n[nH]c2nc(-c3ccc(NS(=O)(=O)c4cc(Cl)ccc4F)cc3)nc(OCCN(C)CCO)c12 [Compound 86, 5-chloro-2-fluoro-N-[4-(4-{2-[(2-hydroxyethyl)(methyl)amino]ethoxy}-3-methyl-1H-pyrazolo[3,4-d]pyrimidin-6-yl)phenyl]benzenesulfonamide] |  |
| 290 µM | 0.6 µM | 1020 ng/mL | 7.5% | 2 h |  |  |  | CC(=O)OCCN(C)CCNc1nc(-c2ccc(NS(=O)(=O)c3cc(Cl)ccc3F)cc2)nc2[nH]nc(C)c12 [Compound 87, 2-[[2-([6-[4-(5-chloro-2-fluorobenzenesulfonamido)phenyl]-3-methyl-1H-pyrazolo[3,4-d]pyrimidin-4-yl]amino)ethyl](methyl)amino]ethyl acetate] |  |
|  |  | 14.5 ng/mL | 1.6% | 4.3 h |  |  |  | Cc1n[nH]c2nc(-c3ccc(NS(=O)(=O)c4cc(Cl)ccc4F)cc3)nc(NCCN(C)CCOP(=O)(O)O)c12 [Compound 88, 2-{[2-({6-[4-(5-chloro-2-fluorobenzenesulfonamido)phenyl]-3-methyl-1H-pyrazolo[3,4-d]pyrimidin-4-yl}amino)ethyl](methyl)amino}ethoxyphosphonic acid] |  |
|  |  | 1740 ng/mL | 11% | 1.2 h |  |  |  | Cc1n[nH]c2nc(-c3ccc(NS(=O)(=O)c4cc(Cl)ccc4F)cc3)nc(NCCN(C)CCOC(=O)C(C)C)c12 [Compound 89, 2-{[2-({6-[4-(5-chloro-2-fluorobenzenesulfonamido)phenyl]-3-methyl-1H-pyrazolo[3,4-d]pyrimidin-4-yl}amino)ethyl](methyl)amino}ethyl 2-methylpropanoate trifluoroacetic acid] |  |
|  |  | 523 ng/mL | 5.5% | 2.4 h |  |  |  | CCC(=O)OCCN(C)CCNc1nc(-c2ccc(NS(=O)(=O)c3cc(Cl)ccc3F)cc2)nc2[nH]nc(C)c12 [Compound 90, 2-{[2-({6-[4-(5-chloro-2-fluorobenzenesulfonamido)phenyl]-3-methyl-1H-pyrazolo[3,4-d]pyrimidin-4-yl}amino)ethyl](methyl)amino}ethyl propanoate; bis(trifluoroacetic acid)] |  |
|  |  | 319 ng/mL | 2.2% | 4.5 h |  |  |  | CCCC(=O)OCCN(C)CCNc1nc(-c2ccc(NS(=O)(=O)c3cc(Cl)ccc3F)cc2)nc2[nH]nc(C)c12 [Compound 91, 2-{[2-({6-[4-(5-chloro-2-fluorobenzenesulfonamido)phenyl]-3-methyl-1H-pyrazolo[3,4-d]pyrimidin-4-yl}amino)ethyl](methyl)amino}ethyl butanoate trifluoroacetic acid] |  |
|  |  |  |  |  | 3.3 h | 24% | 267 ng/mL | COc1cc(-c2nc(NCCN(C)C)c3c(C)n[nH]c3n2)ccc1NS(=O)(=O)c1cc(F)ccc1F [Compound 96, N-[4-(4-{[2-(dimethylamino)ethyl]amino}-3-methyl-1H-pyrazolo[3,4-d]pyrimidin-6-yl)-2-methoxyphenyl]-2,5-difluorobenzenesulfonamide] |  |
|  |  |  |  |  | 3.8 h | 39.5% | 2480 ng/mL | Cc1n[nH]c2nc(-c3ccc(NS(=O)(=O)c4cc(OC(C)C)ccn4)c(Cl)c3)nc(NCCN(C)C)c12 [Compound 100, N-[2-chloro-4-(4-{[2-(dimethylamino)ethyl]amino}-3-methyl-1H-pyrazolo[3,4-d]pyrimidin-6-yl)phenyl]-4-isopropoxypyridine-2-sulfonamide] |  |
|  |  |  |  |  | 3.8 h | 75% | 8120 ng/mL | Cc1n[nH]c2nc(-c3ccc(NS(=O)(=O)c4cc(Cl)ccc4F)c(Cl)c3)nc(OC3CCN(C)CC3)c12 [Compound 101, 5-chloro-N-(2-chloro-4-{3-methyl-4-[(1-methylpiperidin-4-yl)oxy]-1H-pyrazolo[3,4-d]pyrimidin-6-yl}phenyl)-2-fluorobenzenesulfonamide] |  |
| 136 µM (≈ 70.5 µg/mL) | 1.61 µM (≈ 0.834 µg/mL) |  |  |  |  |  |  | Cc1n[nH]c2nc(-c3ccc(NS(=O)(=O)c4cc(Cl)ccc4F)cc3)nc(N(C)CCN(C)C)c12 [Compound 154, 5-chloro-N-(4-(4-((2-(dimethylamino)ethyl)(methyl)amino)-3-methyl-1H-pyrazolo[3,4-d]pyrimidin-6-yl)phenyl)-2-fluorobenzenesulfonamide] |  |
|  |  |  |  |  | 7.5 h | 5.3% | 283 ng/mL | Cc1n[nH]c2nc(-c3ccc(NS(=O)(=O)c4cc(F)ccc4F)c(F)c3)nc(O[C@@H]3CCNC[C@@H]3F)c12 [Compound 155] |  |
|  |  |  |  |  | 5.2 h | 12% | 548 ng/mL | Cc1n[nH]c2nc(-c3ccc(NS(=O)(=O)c4cc(F)ccc4F)c(Cl)c3)nc(O[C@@H]3CCNC[C@@H]3F)c12 [Compound 156, N-[2-chloro-4-(4-{[(3S,4R)-3-fluoropiperidin-4-yl]oxy}-3-methyl-1H-pyrazolo[3,4-d]pyrimidin-6-yl)phenyl]-2,5-difluorobenzenesulfonamide hydrochloride] |  |
